From US20230212121A1 (DAEGU-GYEONGBUK MEDICAL INNOVATION FOUNDATION, priority 2020, published 2023)

Legend:
Type in all cases: cell-based
[1] = target: T1, dopamine transporter (DAT) (Homo sapiens, UniProt Q01959); experiment: Dopamine reuptake inhibition, [3H]-DA, HEK-293 cells transfected with dopamine transporter cDNA; conditions: compound 1 μM; 20-30 nM [3H]-DA; relative to control without compound = 100%; lower value = more inhibition
T1 construct: expressed in transfected cells; host or cells: HEK-293
T1 sequence (Q01959 whole entry, species assumed): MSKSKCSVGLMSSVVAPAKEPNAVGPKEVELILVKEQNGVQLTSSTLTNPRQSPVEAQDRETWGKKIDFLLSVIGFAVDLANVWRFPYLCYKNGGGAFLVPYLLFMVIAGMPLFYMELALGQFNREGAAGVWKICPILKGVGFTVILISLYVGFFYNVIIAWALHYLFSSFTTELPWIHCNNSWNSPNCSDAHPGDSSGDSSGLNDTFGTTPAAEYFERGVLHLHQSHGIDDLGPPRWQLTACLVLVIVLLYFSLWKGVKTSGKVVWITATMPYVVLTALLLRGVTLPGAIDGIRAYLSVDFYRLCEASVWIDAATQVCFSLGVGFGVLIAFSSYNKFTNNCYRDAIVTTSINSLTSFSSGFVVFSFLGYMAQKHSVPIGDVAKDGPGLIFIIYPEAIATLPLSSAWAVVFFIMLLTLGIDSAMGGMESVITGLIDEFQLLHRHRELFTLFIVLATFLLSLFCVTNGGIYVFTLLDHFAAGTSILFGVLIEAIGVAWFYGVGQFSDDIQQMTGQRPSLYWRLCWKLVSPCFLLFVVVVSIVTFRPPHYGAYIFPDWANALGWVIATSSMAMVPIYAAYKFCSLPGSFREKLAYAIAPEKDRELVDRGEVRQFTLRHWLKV
Procedure, shortened: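 Transfected cells were preincubated with compound (1 μM screen) for 15 min at 37 °C, then given 20-30 nM tracer for 5 min at 37 °C, washed ice-cold and lysed in 1% SDS for radioactivity counting. Uptake was expressed as % of untreated control, and IC50 came from six concentrations, 1 nM to 1 μM.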

[2] = target: T2, norepinephrine transporter (NET) (Homo sapiens, UniProt P23975); experiment: Norepinephrine reuptake inhibition, [3H]-NE, HEK-293 cells transfected with NE transporter cDNA; conditions: compound 1 μM; [3H]-NE; relative to control without compound = 100%; lower value = more inhibition
T2 construct: expressed in transfected cells; host or cells: HEK-293
T2 sequence (P23975 whole entry, species assumed): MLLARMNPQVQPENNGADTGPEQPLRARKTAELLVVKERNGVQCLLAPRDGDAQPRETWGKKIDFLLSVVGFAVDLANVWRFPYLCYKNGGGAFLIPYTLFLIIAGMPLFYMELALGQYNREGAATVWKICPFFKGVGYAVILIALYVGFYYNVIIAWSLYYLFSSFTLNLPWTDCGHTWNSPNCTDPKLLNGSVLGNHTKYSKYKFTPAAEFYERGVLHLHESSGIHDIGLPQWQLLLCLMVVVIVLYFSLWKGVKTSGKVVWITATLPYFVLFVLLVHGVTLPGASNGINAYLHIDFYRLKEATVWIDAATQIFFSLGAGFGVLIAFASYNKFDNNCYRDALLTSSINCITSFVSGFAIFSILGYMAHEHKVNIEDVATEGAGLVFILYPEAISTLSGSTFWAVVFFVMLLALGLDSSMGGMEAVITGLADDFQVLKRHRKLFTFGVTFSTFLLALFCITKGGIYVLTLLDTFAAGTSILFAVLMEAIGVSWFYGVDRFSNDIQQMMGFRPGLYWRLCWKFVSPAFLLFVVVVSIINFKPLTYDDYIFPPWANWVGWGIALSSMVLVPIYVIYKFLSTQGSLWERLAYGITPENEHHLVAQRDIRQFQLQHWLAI
Procedure, shortened: (§1)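 HEK-293 cells transfected with SERT or NET cDNA were preincubated with compounds in uptake buffer for 15 min at 37 °C, then given [3H]-5-HT or [3H]-NE for 5 min at 37 °C. After ice-cold washes and 1% SDS lysis, retained radioactivity was expressed relative to the untreated control (100%). Screening was at 1 μM; IC50 came from six concentrations (1 nM–1 μM).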

[3] = target: T3, serotonin transporter (SERT) (Homo sapiens, UniProt P31645); experiment: Serotonin reuptake inhibition, [3H]-5-HT, HEK-293 cells transfected with 5-HT transporter cDNA; conditions: for Triple reuptake inhibition (Ratio %) SERT: compound 1 μM, [3H]-5-HT, relative to control without compound = 100%, lower value = more inhibition
T3 construct: expressed in transfected cells; host or cells: HEK-293
T3 sequence (P31645 whole entry, species assumed): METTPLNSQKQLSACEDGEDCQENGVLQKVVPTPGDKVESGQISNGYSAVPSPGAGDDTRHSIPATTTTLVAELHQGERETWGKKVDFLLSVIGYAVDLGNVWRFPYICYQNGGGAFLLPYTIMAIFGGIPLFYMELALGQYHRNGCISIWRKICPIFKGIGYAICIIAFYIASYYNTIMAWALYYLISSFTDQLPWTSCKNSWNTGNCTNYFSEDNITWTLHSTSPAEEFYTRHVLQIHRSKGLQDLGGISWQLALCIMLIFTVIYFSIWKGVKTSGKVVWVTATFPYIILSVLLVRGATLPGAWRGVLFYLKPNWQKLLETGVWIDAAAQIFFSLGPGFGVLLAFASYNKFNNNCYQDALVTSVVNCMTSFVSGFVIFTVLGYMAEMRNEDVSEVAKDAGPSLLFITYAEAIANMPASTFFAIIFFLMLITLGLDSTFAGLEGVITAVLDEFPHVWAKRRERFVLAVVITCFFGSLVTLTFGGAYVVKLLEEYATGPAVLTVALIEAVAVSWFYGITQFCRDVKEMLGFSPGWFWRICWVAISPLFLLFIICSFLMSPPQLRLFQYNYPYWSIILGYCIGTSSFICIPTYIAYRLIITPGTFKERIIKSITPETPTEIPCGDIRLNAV
Procedure, shortened: as §1

Compound | Triple reuptake inhibition (Ratio %) DAT [1] [%] | Triple reuptake inhibition (Ratio %) NET [2] [%] | Triple reuptake inhibition (Ratio %) SERT [3] [%] | IC50 ([3]; concentration at which Ratio % is 50%, 6 concentrations 1 nM to 1 μM, read-out: Triple reuptake inhibition (IC50, μM) SERT) [µM]
COc1ccc(-c2ccc(S(=O)(=O)NCCCN3CCC(Cc4ccccc4)CC3)cc2)cc1 [Example 61, N-(3-(4-benzylpiperidin-1-yl)propyl)-4′-methoxy-[1,1′-biphenyl]-4-sulfonamide] | 29.62 | 44.79 | 30.78 | 
O=S(=O)(NCCCN1CCC(c2ccccc2)CC1)c1cccc2ccccc12 [Example 63] | 80.21 | 34.97 | 64.15 | 
O=S(=O)(NCCCN1CCC(c2ccccc2)CC1)c1ccc2ccccc2n1 [Example 65, N-(3-(4-phenylpiperidin-1-yl)propyl)quinolin sulfonamide] | 89.88 | 45.04 | 56.73 | 
O=S(=O)(NCCCN1CCN(Cc2ccccc2)CC1)c1cccc2ccccc12 [Example 67] | 83.08 | 87.27 | 49.64 | 
O=S(=O)(NCCCN1CCN(c2ccc(Cl)cc2)CC1)c1ccc2ccccc2c1 [Example 70, N-(3-(4-(4-chlorophenyl)piperazin-1-yl)propyl)naphthalen-2-sulfonamide] | 86.5 | 87.27 | 45.16 | 
O=S(=O)(NCCCN1CCN(c2ccc(Cl)cc2)CC1)c1cccc2ccccc12 [Example 71, N-(3-(4-(4-chlorophenyl)piperazin-1-yl)propyl)naphthalen-1-sulfonamide] | 68.53 | 64.45 | 47.19 | 
O=S(=O)(NCCCN1CCN(c2ccc(Cl)cc2)CC1)c1ccc(-c2ccccc2)cc1 [Example 72, N-(3-(4-(4-chlorophenyl)piperazin-1-yl)propyl)-[1,1′-biphenyl]-4-sulfonamide] | 68.53 | 64.45 | 47.19 | 
O=S(=O)(NCCCN1CCN(c2ccc(Cl)cc2)CC1)c1ccc2ccccc2n1 [Example 73, N-(3-(4-(4-chlorophenyl)piperazin-1-yl)propyl)quinolin-2-sulfonamide] | 68.53 | 64.45 | 47.19 | 0.102
O=S(=O)(NCCCN1CCC(CCCc2ccccc2)CC1)c1ccc(-c2ccc(F)cc2)cc1 [Example 74, 4′-fluoro-N-(3-(4-(3-phenylpropyl)piperidin-1-yl)propyl)-[1,1′-biphenyl]-4-sulfonamide] | 76.23 | 44.79 | 61.48 | 
O=S(=O)(NCCCN1CCC(CCCc2ccccc2)CC1)c1ccc(-c2ccccc2)cc1 [Example 75, N-(3-(4-(3-phenylpropyl)piperidin-1-yl)propyl)-[1,1′-biphenyl]-4-sulfonamide] | 76.23 | 44.79 | 61.48 | 
O=S(=O)(NCCCN1CCN(CCCc2ccccc2)CC1)c1ccc(-c2ccccc2)cc1 [Example 76, N-(3-(4-(3-phenylpropyl)piperazin-1-yl)propyl)-[1,1′-biphenyl]-4-sulfonamide] | 19.97 | 44.79 | 44.91 | 
O=S(=O)(NCCCCN1CCC(Cc2ccccc2)CC1)c1ccc(-c2ccccc2)cc1 [Example 77, N-(4-(4-benzylpiperidin-1-yl)butyl)-[1,1′-biphenyl]-4-sulfonamide] | 25.71 | 44.79 | 40.45 | 
O=S(=O)(NCCCCN1CCN(CCCc2ccccc2)CC1)c1ccc(-c2ccccc2)cc1 [Example 78, N-(4-(4-(3-phenylpropyl)piperazin-1-yl)butyl)-[1,1′-biphenyl]-4-sulfonamide] | 25.52 | 44.79 | 32.90 | 
O=S(=O)(NCCCCN1CCC(CCCc2ccccc2)CC1)c1ccc(-c2ccccc2)cc1 [Example 79, N-(4-(4-(3-phenylpropyl)piperidin-1-yl)butyl)-[1,1′-biphenyl]-4-sulfonamide] | 20.60 | 30.25 | 21.60 | 
N-(3-(4-benzylpiperidin-1-yl)propyl)-4-butoxybenzenesulfineamide [Example 19] | 57.52 | 64.78 | 67.86 | 
